Experiment in all cases: Kinase panel
Holding throughout (type): biochemical

For one experiment, the target named is T1, cKit(D816H)(h) (Homo sapiens, UniProt P10721, D816H).
T1 construct: purchased Millipore KinaseProfiler

The target of the next experiment is T2, LKB1(h) (Homo sapiens, UniProt Q15831).
T2 construct: purchased Millipore KinaseProfiler
T2 sequence (Q15831 1-433): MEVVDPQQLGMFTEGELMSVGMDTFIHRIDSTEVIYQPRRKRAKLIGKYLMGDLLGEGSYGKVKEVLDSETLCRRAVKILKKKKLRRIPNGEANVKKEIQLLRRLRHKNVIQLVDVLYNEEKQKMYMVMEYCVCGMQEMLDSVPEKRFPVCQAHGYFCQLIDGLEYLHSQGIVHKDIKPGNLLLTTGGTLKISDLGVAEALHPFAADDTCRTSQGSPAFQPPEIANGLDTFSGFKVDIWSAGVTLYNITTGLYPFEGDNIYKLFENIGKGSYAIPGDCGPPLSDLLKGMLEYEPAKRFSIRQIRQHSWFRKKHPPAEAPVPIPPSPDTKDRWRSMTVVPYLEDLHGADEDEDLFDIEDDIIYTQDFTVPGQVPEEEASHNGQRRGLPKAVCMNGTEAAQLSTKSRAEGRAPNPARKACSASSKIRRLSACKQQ
T2 sequence (Q7RTN6 1-431 partner): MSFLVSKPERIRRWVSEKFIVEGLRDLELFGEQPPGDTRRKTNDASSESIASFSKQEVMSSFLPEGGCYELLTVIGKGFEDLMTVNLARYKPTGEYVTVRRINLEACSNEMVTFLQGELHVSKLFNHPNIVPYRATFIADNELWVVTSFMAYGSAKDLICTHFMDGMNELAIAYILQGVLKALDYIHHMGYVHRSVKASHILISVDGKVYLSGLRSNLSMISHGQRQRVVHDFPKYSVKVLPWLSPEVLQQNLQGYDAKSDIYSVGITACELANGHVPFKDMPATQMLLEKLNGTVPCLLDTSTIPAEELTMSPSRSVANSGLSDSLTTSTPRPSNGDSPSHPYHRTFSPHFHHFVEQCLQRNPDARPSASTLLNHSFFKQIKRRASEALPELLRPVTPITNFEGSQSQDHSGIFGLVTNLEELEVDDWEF
T2 sequence (Q9Y376 1-341 partner): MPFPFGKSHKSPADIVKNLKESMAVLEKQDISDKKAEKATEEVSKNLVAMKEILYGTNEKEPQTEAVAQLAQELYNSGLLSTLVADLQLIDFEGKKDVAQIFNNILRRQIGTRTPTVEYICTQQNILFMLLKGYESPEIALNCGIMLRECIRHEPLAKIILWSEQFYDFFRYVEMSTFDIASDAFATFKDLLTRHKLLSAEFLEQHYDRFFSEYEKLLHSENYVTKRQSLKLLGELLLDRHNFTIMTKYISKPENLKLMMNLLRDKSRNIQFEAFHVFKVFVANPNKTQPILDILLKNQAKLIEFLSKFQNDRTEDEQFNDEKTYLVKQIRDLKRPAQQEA

For another experiment, the target named is T3, c-RAF(h) (Homo sapiens, UniProt P04049).
T3 construct: purchased Millipore KinaseProfiler

In another experiment the target is T4, TAO1(h) (Homo sapiens, UniProt Q7L7X3).
T4 construct: purchased Millipore KinaseProfiler
T4 sequence (Q7L7X3 1-1001): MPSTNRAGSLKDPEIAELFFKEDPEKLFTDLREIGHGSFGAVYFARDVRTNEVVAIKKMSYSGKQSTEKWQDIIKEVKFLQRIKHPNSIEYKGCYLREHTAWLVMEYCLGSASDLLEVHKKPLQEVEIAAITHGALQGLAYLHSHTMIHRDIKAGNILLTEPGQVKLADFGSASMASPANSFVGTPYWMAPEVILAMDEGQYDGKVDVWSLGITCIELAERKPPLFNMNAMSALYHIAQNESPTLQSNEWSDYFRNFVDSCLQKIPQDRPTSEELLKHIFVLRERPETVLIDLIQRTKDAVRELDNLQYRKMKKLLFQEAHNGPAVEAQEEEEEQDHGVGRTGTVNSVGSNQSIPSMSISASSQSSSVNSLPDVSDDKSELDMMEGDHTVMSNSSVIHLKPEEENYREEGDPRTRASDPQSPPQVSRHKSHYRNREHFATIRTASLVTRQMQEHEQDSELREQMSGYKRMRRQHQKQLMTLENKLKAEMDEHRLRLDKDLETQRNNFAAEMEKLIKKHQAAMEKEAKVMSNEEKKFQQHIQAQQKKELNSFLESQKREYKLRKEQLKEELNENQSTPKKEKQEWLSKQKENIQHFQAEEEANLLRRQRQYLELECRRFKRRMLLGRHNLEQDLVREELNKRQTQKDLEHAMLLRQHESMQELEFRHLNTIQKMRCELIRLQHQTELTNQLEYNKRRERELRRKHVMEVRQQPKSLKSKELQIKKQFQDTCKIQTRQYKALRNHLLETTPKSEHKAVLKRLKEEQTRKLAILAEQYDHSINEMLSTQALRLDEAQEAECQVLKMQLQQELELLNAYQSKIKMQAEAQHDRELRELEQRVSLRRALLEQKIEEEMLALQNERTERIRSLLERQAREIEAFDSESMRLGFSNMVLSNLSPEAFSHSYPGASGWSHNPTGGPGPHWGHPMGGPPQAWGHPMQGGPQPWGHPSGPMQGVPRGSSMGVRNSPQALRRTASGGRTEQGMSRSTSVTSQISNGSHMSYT

In a further experiment the target is T5, MST2(h) (Homo sapiens, UniProt Q13188).
T5 construct: purchased Millipore KinaseProfiler
T5 sequence (Q13188 1-491): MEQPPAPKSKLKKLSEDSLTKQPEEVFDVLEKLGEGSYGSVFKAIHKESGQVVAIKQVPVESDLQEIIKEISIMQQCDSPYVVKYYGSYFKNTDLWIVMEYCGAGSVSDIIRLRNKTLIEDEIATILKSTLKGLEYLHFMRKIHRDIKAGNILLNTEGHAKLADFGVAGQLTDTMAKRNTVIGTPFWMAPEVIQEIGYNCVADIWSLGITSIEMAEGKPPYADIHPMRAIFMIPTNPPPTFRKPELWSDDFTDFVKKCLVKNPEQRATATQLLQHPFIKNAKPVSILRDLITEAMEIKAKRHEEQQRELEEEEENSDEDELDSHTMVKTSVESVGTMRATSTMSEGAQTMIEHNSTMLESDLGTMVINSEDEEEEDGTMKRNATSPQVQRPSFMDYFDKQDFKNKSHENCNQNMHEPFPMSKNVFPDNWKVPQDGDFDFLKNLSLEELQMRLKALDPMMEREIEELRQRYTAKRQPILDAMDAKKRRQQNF

Where two headings read alike, the source gives them in different places.

T1 sequence (P10721 26-976 D816H): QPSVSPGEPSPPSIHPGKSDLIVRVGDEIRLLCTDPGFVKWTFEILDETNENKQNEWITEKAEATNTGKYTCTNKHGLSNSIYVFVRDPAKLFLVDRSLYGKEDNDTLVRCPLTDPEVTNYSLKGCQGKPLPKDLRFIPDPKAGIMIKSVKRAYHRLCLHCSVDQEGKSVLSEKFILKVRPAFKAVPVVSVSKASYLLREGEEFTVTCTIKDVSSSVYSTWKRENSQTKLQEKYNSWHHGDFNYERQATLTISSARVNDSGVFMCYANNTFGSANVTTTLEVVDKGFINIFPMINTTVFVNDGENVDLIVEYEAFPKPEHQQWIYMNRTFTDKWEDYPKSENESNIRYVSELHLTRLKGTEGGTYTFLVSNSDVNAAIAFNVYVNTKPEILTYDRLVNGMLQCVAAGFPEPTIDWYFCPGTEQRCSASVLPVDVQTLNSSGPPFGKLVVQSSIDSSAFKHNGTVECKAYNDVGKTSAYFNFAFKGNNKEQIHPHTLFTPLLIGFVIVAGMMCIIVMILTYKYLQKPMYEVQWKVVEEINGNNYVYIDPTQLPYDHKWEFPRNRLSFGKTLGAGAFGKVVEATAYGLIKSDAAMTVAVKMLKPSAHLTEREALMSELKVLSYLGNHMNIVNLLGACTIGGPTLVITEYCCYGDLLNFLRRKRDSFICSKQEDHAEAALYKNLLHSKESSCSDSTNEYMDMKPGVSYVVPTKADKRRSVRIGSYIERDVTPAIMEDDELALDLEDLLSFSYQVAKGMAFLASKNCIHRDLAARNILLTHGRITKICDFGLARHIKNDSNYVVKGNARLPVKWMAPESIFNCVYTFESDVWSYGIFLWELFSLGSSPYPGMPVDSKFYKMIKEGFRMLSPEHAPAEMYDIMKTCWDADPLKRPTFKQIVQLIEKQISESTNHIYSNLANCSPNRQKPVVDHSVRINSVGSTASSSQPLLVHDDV
T3 sequence (P04049 whole entry): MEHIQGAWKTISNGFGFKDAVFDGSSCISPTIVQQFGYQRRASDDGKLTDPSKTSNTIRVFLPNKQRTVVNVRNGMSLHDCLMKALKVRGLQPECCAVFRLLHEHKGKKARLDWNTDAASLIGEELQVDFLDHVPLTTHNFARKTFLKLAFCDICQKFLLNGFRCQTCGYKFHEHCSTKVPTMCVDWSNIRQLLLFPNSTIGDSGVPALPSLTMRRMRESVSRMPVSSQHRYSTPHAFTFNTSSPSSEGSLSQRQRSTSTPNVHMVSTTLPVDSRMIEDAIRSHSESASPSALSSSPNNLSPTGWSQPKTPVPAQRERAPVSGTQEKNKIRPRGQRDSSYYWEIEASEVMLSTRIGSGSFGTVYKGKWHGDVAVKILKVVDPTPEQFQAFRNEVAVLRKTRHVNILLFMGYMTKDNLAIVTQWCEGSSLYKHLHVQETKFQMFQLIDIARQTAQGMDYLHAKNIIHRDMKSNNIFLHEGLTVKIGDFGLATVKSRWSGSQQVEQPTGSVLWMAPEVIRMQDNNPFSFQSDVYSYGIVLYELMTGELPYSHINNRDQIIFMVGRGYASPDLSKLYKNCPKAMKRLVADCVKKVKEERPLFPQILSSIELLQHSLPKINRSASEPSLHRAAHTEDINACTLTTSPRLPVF

By inhibition is commonly meant the relative decrease from the control value, in per cent. On to `Cn1ncc(Cl)c1-c1cc(C(=O)N[C@H](CN)Cc2cccc(F)c2)sc1Cl` [GSK2110183], for which the inhibition at 0.5 µM is -6% on cKit(D816H)(h); -2% against LKB1(h); -2% on c-RAF(h); 15% against TAO1(h); -4% against MST2(h). Moreover, the inhibition at 10 µM against cKit(D816H)(h) is -3%; against LKB1(h), 40%; on c-RAF(h), 11%; against TAO1(h), 49%; against MST2(h) it was -2%.
`Cn1ncc(Cl)c1-c1cc(C(=O)N[C@H](CN)Cc2ccc(F)c(F)c2)oc1Cl` [GSK2141795]: the inhibition at 0.5 µM at cKit(D816H)(h) (0.5 µM, read-out: % Inhibition) is -15%; at LKB1(h) (0.5 µM, read-out: % Inhibition) it was -18%; at c-RAF(h) (0.5 µM, read-out: % Inhibition) it was -4%; at TAO1(h) (0.5 µM, read-out: % Inhibition) it was -4%; at MST2(h) (0.5 µM, read-out: % Inhibition), -2%. In addition, the inhibition at 10 µM at cKit(D816H)(h) (10 µM, read-out: % Inhibition) turned out to be 43%; on LKB1(h) (10 µM, read-out: % Inhibition), 18%; at c-RAF(h) (10 µM, read-out: % Inhibition) it was 13%; on TAO1(h) (10 µM, read-out: % Inhibition), 24%; at MST2(h) (10 µM, read-out: % Inhibition), 4%.

The record behind these values is article PMC4076210, “Discovery of Novel AKT Inhibitors with Enhanced Anti-Tumor Effects in Combination with the MEK Inhibitor” (PLoS ONE, 2014).
